According to patent publication US8476253B2, “Amide derivative” (Daiichi Sankyo Company, Limited, priority 2009, dated 2013):
Counter-ions that a name gives are not always drawn. Like-named read-outs stand apart in the source and are kept apart here.

Assays:
human NK2 receptor = target: T1, human NK2 receptor (Homo sapiens, UniProt P21452); assay: Test for binding to human NK2 receptor
T1 construct: expressed in transfected cells; host or cells: COS cells
T1 sequence (P21452 1-398): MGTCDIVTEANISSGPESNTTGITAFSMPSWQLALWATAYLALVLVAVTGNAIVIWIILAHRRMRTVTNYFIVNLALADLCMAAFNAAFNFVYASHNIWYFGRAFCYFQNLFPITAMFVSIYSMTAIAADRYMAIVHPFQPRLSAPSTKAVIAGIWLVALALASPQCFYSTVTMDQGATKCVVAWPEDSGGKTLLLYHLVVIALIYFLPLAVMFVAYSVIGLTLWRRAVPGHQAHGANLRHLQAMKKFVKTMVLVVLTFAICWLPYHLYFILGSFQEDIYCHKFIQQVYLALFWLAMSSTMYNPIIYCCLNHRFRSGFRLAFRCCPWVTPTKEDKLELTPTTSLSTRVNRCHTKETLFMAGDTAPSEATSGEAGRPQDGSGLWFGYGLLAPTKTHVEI
Method: A solution of cryopreserved COS cells expressing human NK2 receptor was diluted with a buffer (50 mM tris-hydrochloride containing 0.04% of bovine serum albumin [BSA], pH 7.4) to obtain a concentration of 5.0×10^5 cells/mL and used as a crude membrane sample.
[^3H]SR 48968 (GE Healthcare Japan Corporation) was diluted with a mixture of 50 mM of tris-hydrochloride (pH 7.4), 6 mM of manganese chloride tetrahydrate, 800 μg/mL of BSA, 8 μg/mL of chymostatin, 8 μg/mL of leupeptin, 80 μg/mL of bacitracin, and 20 μg/mL of phosphoramidon. […] After the reaction, the membrane components were collected on a GF/B glass fiber filter paper (Whatman; Biomedical Research and Development Laboratories, Inc.) with an automated filtration system (Brandel; Biomedical Research and Development Laboratories, Inc.). The glass fiber filter paper was pretreated with a 0.1% polyethylenimine solution for 4 hours or longer to minimize non-specific binding. The filter collecting the membrane components was transferred to a small-size plastic vial containing 3 mL of Pico-Fluor, and the radioactivity was measured with a liquid scintillation counter (Tri-Carb 2900TR or 2300TR; Perkin Elmer).
The effect of binding to the NK2 receptor was calculated as the affinity (Ki) of the test substance for the NK2 receptor from a 50% binding dose (IC50) and the affinity (Kd) of [^3H]SR 48968 for the NK2 receptor.

human M3 receptor = target: T2, human M3 receptor (Homo sapiens, UniProt P20309); assay: Test for binding to human M3 receptor
T2 construct: expressed in transfected cells; host or cells: CHO cells
Method: A solution of cryopreserved CHO cells expressing human M3 receptor was diluted with a buffer (50 mM tris-hydrochloride containing 0.5 mM of EDTA, pH 7.4) to obtain 5.0×10^5 of cells/mL and used as a crude membrane sample.
[N-methyl-^3H]-(−)-Scopolamine methyl chloride (GE Healthcare Japan Corporation) was diluted with 50 mM of tris-hydrochloride containing 0.5 mM of EDTA (pH 7.4), a test substance and 250 μL of the crude membrane sample solution were added to 250 μL of the mixture, and the mixture was incubated at room temperature for 60 minutes. […] The glass fiber filter paper was pretreated with a 0.1% polyethylenimine solution for 4 hours or longer to minimize non-specific binding. The filter collecting membrane components was transferred to a small-size plastic vial containing 3 mL of Pico-Fluor, and the radioactivity was measured with a liquid scintillation counter (Tri-Carb 2900TR or 2300TR; Perkin Elmer).
The effect of binding to the M3 receptor was calculated as the affinity (Ki) of the test substance for the M3 receptor from a 50% binding dose (IC50) and the affinity (Kd) of [N-methyl-^3H]-(−)-Scopolamine methyl chloride for the M3 receptor.

substance P receptor = target: T3, substance P receptor (Cavia porcellus, UniProt P30547); assay: Test for binding to guinea-pig substance P receptor (crude lung membrane sample); conditions: crude guinea-pig lung membrane sample, [3H]substance P; Ki from IC50 and Kd; read-out: Ki
T3 construct: A preparation of a crude lung membrane sample was prepared; from tissue; host or cells: guinea-pig lung (crude membrane sample)
Method: A preparation of a crude lung membrane sample was prepared, and a test for binding of a test substance to the sample was performed according to the method described in EP0336230A2.
The binding effect of the test substance to a substance P receptor was calculated as an affinity (Ki) of the test substance for the substance P receptor from a 50% binding concentration (IC50) and an affinity (Kd) of [^3H]substance P for the substance P receptor.

muscarine M3 receptor = assay: Effect of suppressing methacholine-induced airway contraction (in vivo, intratracheal administration); set-up: species or system guinea pig; conditions: guinea pigs, intratracheal administration 60 minutes before 30 μg/kg i.v. methacholine; AUC of increase in airway pressure over 10 minutes
Method: Using healthy guinea pigs (body weight, 350 to 550 g; Hartley male guinea pigs), the effect of suppressing airway contraction induced by methacholine, which is a muscarine receptor agonist, was examined by a modified method of Konzett-Roessler (Naunyn-Schmiedebergs Arch. Exp. Pathol. Pharmakol. 195, 71 [1940]) using airway pressure as an indicator.
A tracheal cannula and a venous cannula were attached to a guinea pig anesthetized with pentobarbital (50 mg/mL of solution, 0.40 to 0.50 mL/body, subcutaneous administration). An arterial cannula filled with heparin-containing physiological saline (100 U/mL) was further attached, and blood pressure and heart rate were monitored via an amplifier and an instantaneous heart rate meter. Subsequently, gallamine (20 mg/body, intravenous administration) was administered to terminate spontaneous breathing, and then 10 mL/kg of positive pressure breathing (Ugo-Basile Biological Research Apparatus, Cat. No. 7025) was rapidly performed at 60 times/min. The airway pressure during artificial breathing was detected with a pressure transducer (TP-200T or TP-400T; Nihon Kohden Corporation) attached to a side branch of the tracheal cannula, amplified (AP-601G; Nihon Kohden Corporation), and recorded in a recorder. After the airway pressure, blood pressure, and heart rate were stabilized, 30 μg/kg of methacholine was intravenously administered from the venous cannula to induce airway contraction, and the airway pressure was measured for the following 10 minutes.
A test substance was dissolved in 5% glucose solution, and a 0.5 mL/kg solution was administered intratracheally with an intratracheal administration apparatus (model 1A-1B; Penn-Century, Inc.) 60 minutes before stimulation with methacholine.
The AUC of increase in the airway pressure over 10 minutes after administration of methacholine was measured as the intensity of methacholine-induced airway contraction and calculated as an ID50 value from the inhibition rate based on the value of the control group (a 5% glucose solution intratracheal administration group).

[1] = COS cells expressing human NK2 receptor, [3H]SR 48968 1 nM, Ki from IC50 and Kd, read-out: Ki
[2] = CHO cells expressing human M3 receptor, [N-methyl-3H]-(-)-Scopolamine methyl chloride 0.5 nM, Ki from IC50 and Kd, read-out: Ki

T3 sequence (P30547 whole entry): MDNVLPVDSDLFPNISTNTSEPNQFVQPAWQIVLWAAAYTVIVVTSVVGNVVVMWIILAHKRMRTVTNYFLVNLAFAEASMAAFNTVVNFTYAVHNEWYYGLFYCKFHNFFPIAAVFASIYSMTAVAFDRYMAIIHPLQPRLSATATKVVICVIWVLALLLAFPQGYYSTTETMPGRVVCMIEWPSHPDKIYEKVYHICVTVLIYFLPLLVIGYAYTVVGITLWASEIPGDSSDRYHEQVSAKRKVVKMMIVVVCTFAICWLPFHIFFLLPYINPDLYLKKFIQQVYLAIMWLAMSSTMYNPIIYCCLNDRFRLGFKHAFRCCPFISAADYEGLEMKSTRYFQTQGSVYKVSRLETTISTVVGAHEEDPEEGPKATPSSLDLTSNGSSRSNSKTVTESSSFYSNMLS
T2 sequence (P20309 whole entry): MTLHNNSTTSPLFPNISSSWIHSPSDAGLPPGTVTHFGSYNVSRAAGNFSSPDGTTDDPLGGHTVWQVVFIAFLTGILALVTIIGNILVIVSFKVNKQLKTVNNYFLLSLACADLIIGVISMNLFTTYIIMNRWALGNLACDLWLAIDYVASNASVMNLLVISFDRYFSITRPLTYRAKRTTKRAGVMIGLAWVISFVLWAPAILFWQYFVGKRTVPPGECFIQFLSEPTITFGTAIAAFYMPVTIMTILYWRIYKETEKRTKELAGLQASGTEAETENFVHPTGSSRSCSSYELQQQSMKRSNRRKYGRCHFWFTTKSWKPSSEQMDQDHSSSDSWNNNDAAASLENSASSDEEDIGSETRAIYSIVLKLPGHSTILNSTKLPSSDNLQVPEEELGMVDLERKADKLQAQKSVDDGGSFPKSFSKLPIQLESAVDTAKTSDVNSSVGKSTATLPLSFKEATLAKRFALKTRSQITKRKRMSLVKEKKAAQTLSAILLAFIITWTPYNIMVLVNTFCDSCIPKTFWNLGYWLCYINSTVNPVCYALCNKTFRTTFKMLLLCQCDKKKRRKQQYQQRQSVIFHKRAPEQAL

| SMILES | Ki (human NK2 receptor; [1]) | Ki (human M3 receptor; [2]) | Ki (substance P receptor) | ID50 (muscarine M3 receptor) | Ki (human NK2 receptor) | Ki (human M3 receptor) |
| --- | --- | --- | --- | --- | --- | --- |
| CN(CCN1CCC(OC(=O)Nc2ccccc2-c2ccccc2)CC1)C(=O)CCCCCNc1ccc(C(=O)N(C)CCCN(C)C(=O)CO[C@H]2Cc3ccccc3C23CCN(CC[C@@]2(c4ccc(F)cc4)CN(C(=O)c4cc(C(F)(F)F)cc(C(F)(F)F)c4)CO2)CC3)s1 [Example 4, 1-(2-{[6-({5-[{3-[({[(2S)-1′-{2-[(5R)-3-[3,5-Bis(trifluoromethyl)benzoyl]-5-(4-fluorophenyl)-1,3-oxazolidin-5-yl]ethyl}-2,3-dihydrospiro[indene-1,4′-piperidin]-2-yl]oxy}acetyl)(methyl)amino]propyl}(methyl)carbamoyl]-2-thienyl}amino)hexanoyl](methyl)amino}ethyl)piperidin-4-yl biphenyl-2-ylcarbamate] | 0.62 nM | 2.1 nM | 1.8 nM | 0.0252 mg/kg |  |  |
| CN(CCN1CCC(OC(=O)Nc2ccccc2-c2ccccc2)CC1)C(=O)CCCCCNc1ccc(NC(=O)CCCN(C)C(=O)CO[C@H]2Cc3ccccc3C23CCN(CC[C@@]2(c4ccc(F)cc4)CN(C(=O)c4cc(C(F)(F)F)cc(C(F)(F)F)c4)CO2)CC3)cc1 [Example 82, 1-{2-[(6-{[4-({4-[({[(2S)-1′-{2-[(5R)-3-[3,5-Bis(trifluoromethyl)benzoyl]-5-(4-fluorophenyl)-1,3-oxazolidin-5-yl]ethyl}-2,3-dihydrospiro[indene-1,4′-piperidin]-2-yl]oxy}acetyl)(methyl)amino]butanoyl}amino)phenyl]amino}hexanoyl)(methyl)amino]ethyl}piperidin-4-yl biphenyl-2-ylcarbamate trihydrochloride] |  |  | 4.5 nM |  | 0.6 nM | 1.6 nM |
| Cc1cc(NCCCCCC(=O)N(C)CCN2CCC(OC(=O)Nc3ccccc3-c3ccccc3)CC2)sc1C(=O)N(C)CCN(C)C(=O)CO[C@H]1Cc2ccccc2C12CCN(CC[C@@]1(c3ccc(F)cc3)CN(C(=O)c3cc(C(F)(F)F)cc(C(F)(F)F)c3)CO1)CC2 [Example 89, 1-(2-{[6-({5-[{2-[({[(2S)-1′-{2-[(5R)-3-[3,5-Bis(trifluoromethyl)benzoyl]-5-(4-fluorophenyl)-1,3-oxazolidin-5-yl]ethyl}-2,3-dihydrospiro[indene-1,4′-piperidin]-2-yl]oxy}acetyl)(methyl)amino]ethyl}(methyl)carbamoyl]-4-methyl-2-thienyl}amino)hexanoyl](methyl)amino}ethyl)piperidin-4-yl biphenyl-2-ylcarbamate] | 0.75 nM | 1.2 nM | 0.74 nM |  |  |  |
| Cc1nc(N(C)CCCCCC(=O)N(C)CCN2CCC(OC(=O)Nc3ccccc3-c3ccccc3)CC2)sc1C(=O)N(C)CCCN(C)C(=O)CO[C@H]1Cc2ccccc2C12CCN(CC[C@@]1(c3ccc(F)cc3)CN(C(=O)c3cc(C(F)(F)F)cc(C(F)(F)F)c3)CO1)CC2 [Example 106, 1-{2-[{6-[{5-[{3-[({[(2S)-1′-{2-[(5R)-3-[3,5-Bis(trifluoromethyl)benzoyl]-5-(4-fluorophenyl)-1,3-oxazolidin-5-yl]ethyl}-2,3-dihydrospiro[indene-1,4′-piperidin]-2-yl]oxy}acetyl)(methyl)amino]propyl}(methyl)carbamoyl]-4-methyl-1,3-thiazol-2-yl}(methyl)amino]hexanoyl}(methyl)amino]ethyl}piperidin-4-yl biphenyl-2-ylcarbamate trihydrochloride] |  |  | 3.1 nM |  | 0.34 nM | 1.3 nM |
| Cc1nc(NCCCCCC(=O)N(C)CCN2CCC(OC(=O)Nc3ccccc3-c3ccccc3)CC2)sc1C(=O)N(C)CCN(C)C(=O)CO[C@H]1Cc2ccccc2C12CCN(CC[C@@]1(c3ccc(F)cc3)CN(C(=O)c3cc(C(F)(F)F)cc(C(F)(F)F)c3)CO1)CC2 [Example 107, 1-(2-{[6-({5-[{2-[({[(2S)-1′-{2-[(5R)-3-[3,5-Bis(trifluoromethyl)benzoyl]-5-(4-fluorophenyl)-1,3-oxazolidin-5-yl]ethyl}-2,3-dihydrospiro[indene-1,4′-piperidin]-2-yl]oxy}acetyl)(methyl)amino]ethyl}(methyl)carbamoyl]-4-methyl-1,3-thiazol-2-yl}amino)hexanoyl](methyl)amino}ethyl)piperidin-4-yl biphenyl-2-ylcarbamate trihydrochloride] |  |  | 1.2 nM |  | 0.59 nM | 1.4 nM |
| Cc1nc(N(C)CCCCCC(=O)N(C)CCN2CCC(OC(=O)Nc3ccccc3-c3ccccc3)CC2)sc1C(=O)N(C)CCN(C)C(=O)CO[C@H]1Cc2ccccc2C12CCN(CC[C@@]1(c3ccc(F)cc3)CN(C(=O)c3cc(C(F)(F)F)cc(C(F)(F)F)c3)CO1)CC2 [Example 108, 1-{2-[{6-[{5-[{2-[({[(2S)-1′-{2-[(5R)-3-[3,5-Bis(trifluoromethyl)benzoyl]-5-(4-fluorophenyl)-1,3-oxazolidin-5-yl]ethyl}-2,3-dihydrospiro[indene-1,4′-piperidin]-2-yl]oxy}acetyl)(methyl)amino]ethyl}(methyl)carbamoyl]-4-methyl-1,3-thiazol-2-yl}(methyl)amino]hexanoyl}(methyl)amino]ethyl}piperidin-4-yl biphenyl-2-ylcarbamate trihydrochloride] |  |  | 1.3 nM |  | 0.79 nM | 3 nM |
